# US20230101768A1, “METHOD TO TREAT MANGANESE TOXICITY AND MANGANESE-INDUCED PA[…] HUMANS” (priority 2021, published 2023)
# Columns and labels:
# [1] = test system: prolyl hydroxylated HIF1α; assay type: cell-based, human; details: HepG2 cells, 10 μM MG132 for 1 h then 250 μM manganese for 4 h
# Procedure: (§1) manganese and drug treatments in cell culture. Cells were treated with indicated levels of manganese as manganeseCl2.4H2O (Fisher). Vehicle for manganese treatment was water. Prolyl hydroxylase inhibitors roxadustat (Caymen), vadadustat, and molidustat (both APE-Bio); the HIFα inhibitor LW6 (Selleckchem); the proteasomal inhibitor MG132 (Sigma); and the transcription inhibitor actinomycin D (Sigma) were dissolved in DMSO. […] Vehicle treatment for all drugs was DMSO.
# (§2) Immunoblots. HepG2 cells were cultured in 35 mm dishes, treated with or without manganese, MG132 and/or prolyl hydroxylase inhibitors, and scrapped using 200 μl of RIPA buffer (50 mM Tris-HCl, pH7.4; 150 mM NaCl; 1Mm EDTA; 1% Triton; 0.25% sodium deoxycholate; protease inhibitors cocktail (Thermo A32953)). Whole-cell lysates were prepared by adding loading buffer (50 mM Tris-HCl, pH 7.4; 2% sodium dodecyl sulfate; 10% glycerol, 0.1 M dithiothreitol; 0.01% (weight/volume) bromophenol blue) and boiling the samples for 5 min. Equal volumes of samples were loaded per lane. Further processing was as described by us previously (47). Images were quantified using ImageQuant TL software (GE).
# (§3) Antibodies and chemicals. The inventors used the following commercial primary antibodies in this study: rabbit polyclonal anti-HIF1α (Abcam, Ab2185), rabbit polyclonal anti-HIF2α (Novus, NB100-122), rabbit monoclonal anti-HIF1α proline 564 (Cell signaling, 3434S), and mouse monoclonal anti-tubulin (Sigma, T5168). […] Sources of chemicals not provided elsewhere were Thermo Fisher Scientific or Sigma-Aldrich.
# HIF2α [2] = assay type: cell-based, human; details: HepG2 cells, 250 μM manganese; evident at 4 hours, baseline by 24 h
# Procedure: as §1, §2, §3
# HIF1α [3] = assay type: cell-based, human; details: HepG2 cells, 250 μM manganese; evident at 4 hours, baseline by 24 h
# Procedure: as §1, §2, §3
# HIF2α [4] = assay type: cell-based, human
# Description: (§4) qRT-PCR analyses in HepG2 cells stably infected with scramble shRNAs or shRNAs targeting HIF1α, HIF2α, HIF1β/ARNT or HIF1α+HIF2α. Expression in respective scramble shRNA control cells was normalized to 1. Scramble shRNA sequence 1 was used for the HIF1α shRNA assay (single knockdown). Scramble shRNA sequence 2 was used for the other experiments, including HIF1α+HIF2α double knockdown. N=3-4. Except HIF1β/ARNT shRNAs, p<0.05 by t-test in comparison with respective scramble shRNA. […] N.S.—not significant.
# (§5) ShRNA sequences targeting HIF1α, HIF2α, or HIF1β/ARNT (Table 3) were obtained from the MISSION® TRC shRNA library (Sigma) or were previously described (103). Scramble shRNA sequence 1 was from the MISSION® TRC shRNA library while scramble shRNA sequence 2 (Table 3) has been previously reported (104). These sequences were sub-cloned into the lentivirus transfer plasmid pLKO.1 vector (Addgene #8453).
# (§6) Lentiviral infections. Stable cells were generated by lentivirus infection essentially as described by us previously (49, 98). Briefly, lentivirus was produced in HEK293T cells by co-transfecting transfer plasmids described above with plasmids coding for a third generation packing system that is routinely used (pRSV-Rev, pRRE, and pCMV-VSVG) (49, 98). Viral supernatants were collected 40-48 h post-transfection. […]
# (§7) Quantitative RT-PCR assays.
# HIF1α [5] = assay type: cell-based, human
# Description: as §4, §5, §6, §7
# SLC39A14 = details: HepG2 cells, 250 μM manganese for 4 h; expression without manganese normalized to 1; mean±SE, N=4
# Procedure: (§8) Cells were treated with 0 or 250 μM manganese for 4 h, and gene expression was analyzed by qRT-PCR. For each transcript, expression without manganese treatment was normalized to 1. N=4. Data are mean±SE.
# (§9) Cell culture. HepG2 cells were grown in Eagle's modified essential medium (MEM; Corning) with 10% fetal bovine serum (Atlanta Biologicals), 100 IU/ml penicillin (Corning), and 100 μg/ml streptomycin (Corning). 293T cells were maintained in Dulbecco's modified essential medium/F12 (Thermo) supplemented with 10% fetal bovine serum, penicillin (100 IU/ml), and streptomycin (100 μg/ml). Human primary hepatocytes were purchased from XenoTech (catalog #HPCH10+) and cultured according to protocols provided by the supplier.
# as §1
# (§10) Quantitative RT-PCR assays. RNA extraction from HepG2 cells and mouse tissue, reverse transcription to cDNA, and qRT-PCR analyses were performed as described by us previously (47, 50). For analyses of mouse brain samples, a part of the midbrain, including the basal ganglia, was used. Transcript levels were quantified using the ΔΔCT method with 18S (in mice) or TBP (in HepG2 cells) as the internal control, also as described by us previously (47, 50).
# DMT1 = details: HepG2 cells, 250 μM manganese for 4 h; expression without manganese normalized to 1; mean±SE, N=4
# Procedure: as §8, §9, §1, §10
# FPN = details: HepG2 cells, 250 μM manganese for 4 h; expression without manganese normalized to 1; mean±SE, N=4
# Procedure: as §8, §9, §1, §10
# SLC39A8 = details: HepG2 cells, 250 μM manganese for 4 h; expression without manganese normalized to 1; mean±SE, N=4
# Procedure: as §8, §9, §1, §10
# SPCA1 = details: HepG2 cells, 250 μM manganese for 4 h; expression without manganese normalized to 1; mean±SE, N=4
# Procedure: as §8, §9, §1, §10
# SLC30A10 = assay type: cell-based, human; details: HepG2 cells
# Procedure: as §8, §9, §1, §10
# VEGF = assay type: cell-based, human; details: HepG2 cells, 250 μM manganese for 4 h; expression without manganese normalized to 1; mean±SE, N=4
# Procedure: as §8, §9, §1, §10
smiles,measurement,setting,value
"O.O.O.O.[Cl][Mn][Cl] [manganese, manganeseCl2.4H2O]",Signals for prolyl hydroxylated HIF1α in manganese-treated condition,[1],substantially lower
same,HIF2α protein levels after manganese,HIF2α [2],increased
same,HIF1α protein levels after manganese,HIF1α [3],increased
same,HIF2α mRNA levels after manganese,HIF2α [4],not elevated
same,HIF1α mRNA levels after manganese,HIF1α [5],not elevated
same,"Relative expression after manganese, SLC39A14 transcript",SLC39A14,0.71 ± 0.02
same,"Relative expression after manganese, DMT1 transcript",DMT1,0.92 ± 0.03
same,"Relative expression after manganese, FPN transcript",FPN,0.77 ± 0.21
same,"Relative expression after manganese, SLC39A8 transcript",SLC39A8,0.87 ± 0.09
same,"Relative expression after manganese, SPCA1 transcript",SPCA1,1.00 ± 0.05
same,"Relative expression after manganese, SLC30A10 transcript","SLC30A10; 250 μM manganese for 4 h, expression without manganese normalized to 1, mean±SE, N=4",2.40 ± 0.28
same,Time at which SLC30A10 levels returned to baseline,"SLC30A10; 250 μM manganese, time course",≤ 24 h
same,Time to statistically significant increase of SLC30A10,"SLC30A10; 250 μM manganese, time course",≤ 2 h
same,Lowest manganese level at which SLC30A10 levels were elevated,"SLC30A10; dose response, 4 h",62.5 µM
same,"Relative expression after manganese, VEGF transcript",VEGF,2.41 ± 0.29
